Experimental data from article PMC4258814, “Differences between murine arylamine N-acetyltransferase type 1 and human arylamine N-acetyltransferase type 2 defined by substrate specificity and inhibitor binding” (BMC Pharmacology & Toxicology, 2014).
Changes are numbered by the printed parent chain.

Tests used:
[1] = biological target: T1, (MOUSE)NAT2_R127L (Mus musculus, UniProt P50295, R127L); assay: Substrate specific N-acetylation profile; assay type: biochemical; settings: for % specific activity values: (MOUSE)NAT2 R127L, substrate 500 μM, relative to substrate with highest specific activity (100%), mean of 3 ± SD
T1 construct: made in house
T1 sequence (P50295 1-290 R127L): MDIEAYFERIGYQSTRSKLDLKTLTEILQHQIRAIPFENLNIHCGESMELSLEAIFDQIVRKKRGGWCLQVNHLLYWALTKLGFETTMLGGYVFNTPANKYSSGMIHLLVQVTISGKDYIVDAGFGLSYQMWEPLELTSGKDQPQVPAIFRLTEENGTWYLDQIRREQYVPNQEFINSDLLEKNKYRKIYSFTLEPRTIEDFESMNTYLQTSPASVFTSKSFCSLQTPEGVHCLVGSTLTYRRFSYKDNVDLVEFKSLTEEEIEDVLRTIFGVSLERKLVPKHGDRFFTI

[2] = test system: (MESAU)NAT2*1; design: method as in PMID 15627487, PMID 18280460; settings: substrate 500 μM, relative to substrate with highest specific activity (100%), mean of 3 ± SD, ref [8], [22]; cited from earlier work
[3] = ref [56]–[61], cited from earlier work; for pKaH of acetyl acceptor amine: as summarised in text from Table S1
[4] = biological target: T2, (MOUSE)NAT2*1 (Mus musculus, UniProt P50295); assay: Substrate specific N-acetylation profile; assay type: biochemical; settings: for % specific activity values: substrate 500 μM, relative to substrate with highest specific activity (100%), mean of 3 ± SD
T2 construct: made in house
T2 sequence (P50295 1-290): T1 sequence (P50295 1-290 R127L) with L127R

[5] = biological target: T3, (HUMAN)NAT2*4 (Homo sapiens, UniProt P11245); design: method as in PMID 15627487, PMID 18280460; settings: substrate 500 μM, relative to substrate with highest specific activity (100%), mean of 3 ± SD, ref [8], [22]; cited from earlier work
T3 construct: made in house
T3 sequence (P11245 1-290): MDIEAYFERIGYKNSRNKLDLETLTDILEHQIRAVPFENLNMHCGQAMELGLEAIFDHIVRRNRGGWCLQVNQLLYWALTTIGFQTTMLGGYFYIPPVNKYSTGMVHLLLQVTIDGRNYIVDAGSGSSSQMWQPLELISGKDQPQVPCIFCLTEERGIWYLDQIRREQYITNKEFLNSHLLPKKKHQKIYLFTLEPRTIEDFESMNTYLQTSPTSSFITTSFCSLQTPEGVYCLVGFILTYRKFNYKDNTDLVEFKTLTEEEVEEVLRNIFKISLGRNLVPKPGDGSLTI

[6] = biological target: T4, (MOUSE)NAT2_R127G (Mus musculus, UniProt P50295, R127G); assay: Substrate specific N-acetylation profile; assay type: biochemical; settings: (MOUSE)NAT2 R127G; substrate 500 μM; relative to substrate with highest specific activity (100%); mean of 3 ± SD
T4 construct: made in house
T4 sequence (P50295 1-290 R127G): T1 sequence (P50295 1-290 R127L) with L127G

[7] = test system: (HUMAN)NAT1*4; design: method as in PMID 15627487, PMID 18280460; settings: substrate 500 μM, relative to substrate with highest specific activity (100%), mean of 3 ± SD, ref [8], [22]; cited from earlier work
[8] = biological target: T5, (MOUSE)NAT1*1 (Mus musculus, UniProt P50294); assay: Substrate specific N-acetylation profile; assay type: biochemical; settings: for % specific activity values: substrate 500 μM, relative to substrate with highest specific activity (100%), mean of 3 ± SD
T5 construct: The open reading frame of (MOUSE)Nat1*1 [32] was subcloned; hexa-His (N, cleaved yes); made in house; host or cells: Escherichia coli BL21(DE3)CodonPlus-RIL
T5 sequence (P50294 1-290): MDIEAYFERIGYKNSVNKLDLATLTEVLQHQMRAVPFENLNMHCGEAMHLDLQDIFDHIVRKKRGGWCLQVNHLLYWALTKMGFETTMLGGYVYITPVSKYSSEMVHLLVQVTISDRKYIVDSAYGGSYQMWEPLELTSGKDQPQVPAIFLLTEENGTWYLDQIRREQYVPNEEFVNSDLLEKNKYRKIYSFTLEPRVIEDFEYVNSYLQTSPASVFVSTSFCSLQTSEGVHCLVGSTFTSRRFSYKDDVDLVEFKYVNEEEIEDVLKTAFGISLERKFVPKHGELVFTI

[9] = biological target: T6, (MOUSE)NAT2_F125S (Mus musculus, UniProt P50295, F125S); assay: Substrate specific N-acetylation profile; assay type: biochemical; settings: for % specific activity values: (MOUSE)NAT2 F125S, substrate 500 μM, relative to substrate with highest specific activity (100%), mean of 3 ± SD
T6 construct: His tag (only implied by Ni-NTA purification) (cleaved yes); made in house; host or cells: E. coli Rosetta(DE3)pLysS
T6 sequence (P50295 1-290 F125S): T1 sequence (P50295 1-290 R127L) with F125S, L127R

| SMILES | % specific activity values [1] | % specific activity values [2] | pKa(H) (NH3^+) [3] | % specific activity values [4] | % specific activity values [5] | % specific activity values [6] | % specific activity values [7] | % specific activity values [8] | % specific activity values [9] | also measured |
| --- | --- | --- | --- | --- | --- | --- | --- | --- | --- | --- |
| Nc1ccc(C(=O)O)cc1 [4ABA, 4-aminobenzoic acid] | 8 ± 1% | 100 ± 6% | 2.4 | 100 ± 2% | 6 ± 1% | 8 ± 1% | 100 ± 2% | 48 ± 6% | 70 ± 2% | pKaH of acetyl acceptor amine [3]: < 3; pKa(H) (COOH) [3]: 4.9; Maximal specific activity ([4]; best substrate, 500 μM): 196 µM/s/mg |
| Nc1ccc(C(=O)N[C@@H](CCC(=O)O)C(=O)O)cc1 [4ABglu, 4-aminobenzoyl glutamate] | 8 ± 1% | 57 ± 3% | 2.7 | 87 ± 1% | 3 ± 1% | 9 ± 1% | 20 ± 1% | 8 ± 7% | 19 ± 1% | pKaH of acetyl acceptor amine [3]: < 3; pKa(H) (α-COOH) [3]: 3.6; pKa(H) (γ-COOH) [3]: 4.7 |
| Nc1ccc(C(=O)O)c(O)c1 [4AS, 4-aminosalicylate] | 13 ± 1% | 74 ± 3% | 2.3 | 55 ± 1% | 7 ± 1% | 27 ± 1% | 67 ± 2% | 88 ± 6% | 75 ± 3% | pKaH of acetyl acceptor amine [3]: < 3; pKa(H) (COOH) [3]: 6.0; pKa(H) (OH) [3]: 13.2 |
| COc1ccc(N)cc1OC [4AV, 4-aminoveratrole] | 100 ± 10% | 32 ± 1% | 4.7 (NH3^+) | 90 ± 1% | 57 ± 3% | 66 ± 3% | 25 ± 2% | 28 ± 6% | 90 ± 1% | Maximal specific activity ([1]; (MOUSE)NAT2_R127L, best substrate, 500 μM): 82.5 µM/s/mg |
| Nc1ccc(Br)cc1 [4BA, 4-bromoaniline] | 81 ± 11% | 72 ± 1% | 3.4 (NH3^+) | 52 ± 2% | 72 ± 1% | 70 ± 1% | 50 ± 1% | 28 ± 6% | 47 ± 2% | – |
| Nc1ccc(Cl)cc1 [4CA, 4-chloroaniline] | 70 ± 1% | 61 ± 2% | 3.8 (NH3^+) | 46 ± 4% | 71 ± 3% | 54 ± 3% | 36 ± 2% | 18 ± 3% | 56 ± 2% | – |
| Nc1ccc(I)cc1 [4IA, 4-iodoaniline] | 74 ± 8% | 81 ± 1% | 3.8 (NH3^+) | 72 ± 3% | 65 ± 2% | 97 ± 1% | 63 ± 1% | 28 ± 3% | 69 ± 2% | – |
| Nc1ccc(O)c(C(=O)O)c1 [5AS, 5-aminosalicylate] | 65 ± 9% | 30 ± 1% | – | 37 ± 1% | 64 ± 2% | 94 ± 1% | 64 ± 3% | 76 ± 6% | 74 ± 1% | – |
| COc1ccc(N)cc1 [ANS, 4-methoxyaniline] | 77 ± 10% | 89 ± 1% | 5.2 (NH3^+) | 88 ± 6% | 9 ± 2% | 97 ± 4% | 56 ± 2% | 48 ± 1% | 100 ± 3% | Maximal specific activity ([9]; (MOUSE)NAT2_F125S, best substrate, 500 μM): 25 µM/s/mg |
| NNc1nncc2ccccc12 [HDZ, hydralazine] | 95 ± 1% | 3 ± 1% | – | 8 ± 2% | 100 ± 1% | 100 ± 2% | 2 ± 1% | 68 ± 6% | 19 ± 1% | – |
| CCCCCCOc1ccc(N)cc1 [HOA, 4-hexyloxyaniline] | 80 ± 8% | 35 ± 1% | 5.1 (NH3^+) | 23 ± 2% | 51 ± 2% | 59 ± 3% | 12 ± 4% | 3 ± 4% | 47 ± 1% | – |
| NNC(=O)c1ccncc1 [INH, isoniazid] | 76 ± 14% | 1 ± 1% | – | 2 ± 2% | 62 ± 2% | 63 ± 10% | 0 ± 2% | 100 ± 6% | 38 ± 2% | pKa(H) (NH2^+-NH3^+) [3]: 2.0; pKa(H) (NH-NH3^+) [3]: 3.9; pKa(H) (pyridine) [3]: 10.8; Maximal specific activity ([8]; best substrate, 500 μM): 104 µM/s/mg |
| Nc1ccc(Oc2ccccc2)cc1 [POA, 4-phenoxyaniline] | 61 ± 2% | 22 ± 1% | 4.36 (NH3^+) | 20 ± 2% | 62 ± 11% | 67 ± 1% | 17 ± 7% | 6 ± 1% | 62 ± 2% | – |
